{
  "source": "patent US20100098691A1",
  "about": "“COMBINATION OF BENZIMIDAZOLE ANTI-CANCER AGENT AND A SECOND ANTI-CANCER AGENT” (S'BIO PTE LTD, priority 2001, published 2010)",
  "key": {"HCT 116 (colon)": {"tested_on": "HCT 116 (colon)", "assay": "Human xenograft model, tumor growth inhibition", "assay_type": "in vivo, female athymic nude mice", "conditions": "vehicle (Tw/MC) po qd × 14 + 5FU 50 mg/kg iv D1, 8, 15", "method": "The TGI assessment, the treatment-induced decreases in tumor volume on day 21 of various treatment groups were compared to controls. Percent tumor growth inhibition (% TGI) was calculated as"}, "H460 (lung)": {"tested_on": "H460 (lung)", "assay": "Human xenograft model, tumor growth inhibition", "assay_type": "in vivo, female athymic nude mice", "description": "To assess in vivo antitumor activity in human xenograft models, female athymic nude mice, 12 to 14 weeks of age, were implanted subcutaneously in the flank with human cancer cells. When the tumors reached approximately 100 mm^3 in size, the mice were pair-matched into various treatment groups. For oral administration, compounds were dissolved in a mixture of 0.5% methylcellulose and 0.1% Tween 80 and administered by gavage to the tumor-bearing mice. For i.v.andi.p..administration, compounds were dissolved in 0.9% NaCl and for the i.v. administration, the compound was administered via the tail vein.\nPercent tumor growth inhibition (% TGI) was calculated as\n% TGI=(Cday a−Tday a)/(Cday a−Cday 1)×100\nWhere C is the median tumor volume of the control group, T is the median tumor volume of the treatment group, and day a is the day of assessment."}},
  "data": [
    {"molecule": "O=c1[nH]cc(F)c(=O)[nH]1", "note": "[Compound 5FU, Fluorouracil]", "values": [
      {"measurement": "% TGI at Day 15", "setting": "HCT 116 (colon)", "value": 34, "unit": "%"}
    ]},
    {"molecule": "CCCCc1nc2cc(/C=C/C(=O)NO)ccc2n1CCN(CC)CC", "note": "[Compound A8, 3-[2-Butyl-1-(2-diethylamino-ethyl)-1H-benzimidazol-5-yl]-N-hydroxy-acrylamide]", "values": [
      {"measurement": "% TGI at Day 15", "setting": "H460 (lung); A8 50 mg/kg po qd × 14 d", "value": 33, "unit": "%"},
      {"measurement": "% TGI at Day 15", "setting": "H460 (lung); A8 75 mg/kg po D1-3, D8-10", "value": 14, "unit": "%"}
    ]},
    {"molecule": "N.N.O=C([O-])C1(C(=O)[O-])CCC1.[Pt+2]", "note": "[carboplatin, Carboplatin]", "values": [
      {"measurement": "% TGI at Day 15", "setting": "H460 (lung); carboplatin 30 mg/kg ip D1, 8", "value": 29, "unit": "%"}
    ]},
    {"molecule": "Nc1ccn([C@@H]2O[C@H](CO)[C@@H](O)C2(F)F)c(=O)n1", "note": "[gemcitabine, Gemcitabine]", "values": [
      {"measurement": "% TGI at Day 15", "setting": "H460 (lung); gemcitabine 80 mg/kg ip D1, 5, 9, 13 + vehicle po qd × 14 d", "value": 36, "unit": "%"}
    ]}
  ]
}
